# Results: US20120095058A1, “Method of preventing survival of retrovirally cells and of inhibiting formation of infectious retroviruses” (priority 2003, published 2012)
# Tests used:
# HIV-1 infected H9 cells = test: Apoptosis of HIV-1 infected H9 cells by TUNEL flow cytometry; format: cell-based, human; details: for apoptosis at maximal concentration: H9 cells, IMP 400 μM, DES 20 μM; for initiation of apoptosis: HIV-1 infected lymphocyte cell line H9, dose dependence
# Protocol: (§1) Methods: The drug deferiprone (DEF) and ciclopirox (CPX), known as DOHH inhibitors, were compared to the chelators 2-imidazoyl-4-methylphenol (IMP) and desferal (DES). Apoptosis of HIV-1 infected H9 cells, HPV-16 infected SiHa cells, and uninfected lymphocytes was analyzed by TUNEL flow cytometry. DOHH) activity was measured by metabolic labeling with 3H-spennidine.
# [1] = target: T1, deoxyhypusine hydroxylase (DOHH) (Homo sapiens, UniProt Q9BU89); test: DOHH activity in HIV-1 infected H9 cells by metabolic labeling with 3H-spermidine; format: cell-based; set-up: inhibition of DOHH: dose or concentration left out as unconfirmed; details: for concentration with complete suppression of DOHH activity: H9 cells; for inhibition of cellular DOHH: HIV-1 infected H9 cells, dose dependence
# T1 construct: endogenous in cells; host or cells: HIV-1 infected H9 cells
# T1 sequence (Q9BU89 1-302): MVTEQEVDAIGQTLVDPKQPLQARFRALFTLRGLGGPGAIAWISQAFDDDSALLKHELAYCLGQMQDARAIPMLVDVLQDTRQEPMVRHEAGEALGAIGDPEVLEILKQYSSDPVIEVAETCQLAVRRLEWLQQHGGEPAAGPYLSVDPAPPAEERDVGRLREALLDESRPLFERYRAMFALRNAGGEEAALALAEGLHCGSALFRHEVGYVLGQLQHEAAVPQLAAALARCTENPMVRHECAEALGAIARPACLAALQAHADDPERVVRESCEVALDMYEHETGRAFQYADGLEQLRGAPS
# Protocol: as §1
# DOHH activity was measured by metabolic labeling with radioactive spermidine (see FIG. 2), followed by protein hydrolysis\ and amino acid analysis as reported (Hanauske-Abel et al., FEBS Left. 366, 92-98, 1995, which is hereby incorporated by reference). This finding corroborates the results obtained with purified DOHH (FIG. 3) and is consistent with the findings presented in FIG. 1.
# [2] = target: T1, deoxyhypusine hydroxylase (DOHH); test: DOHH activity in HPV-16 infected SiHa cells by metabolic labeling with 3H-spermidine; format: cell-based; set-up: inhibition of DOHH: dose or concentration left out as unconfirmed; details: for inhibition of DOHH: HPV-positive SiHa cells
# Protocol: as §1
# uninfected lymphocytes = test: Apoptosis of uninfected lymphocytes by TUNEL flow cytometry; format: cell-based, human; details: for apoptosis of lymphocytes harvested from healthy volunteers: exposed for 20 hours
# Protocol: as §1
# [3] = tested on: HPV-16 infected SiHa cells; test: Apoptosis of HPV-16 infected SiHa cells by TUNEL flow cytometry; format: cell-based, human
# Protocol: as §1
# [4] = tested on: HIV-1 spliced and unspliced transcripts; test: RNase protection assay of spliced and unspliced HIV-1 transcripts in transfected 293T cells; format: cell-based, human; details: 30 μM, FIG. 1A
# Protocol: (§2) (A, B) Inhibition of accumulation of spliced and unspliced HIV transcripts. Human 293 T cells were co-transfected with plasmids carrying the HIV-1 molecular clone (10 μg) and a CMV-Renilla luciferase construct (2 μg). Ciclopirox (CPX) or Princeton 2 (P2) were added to a final concentration of 30 μM 3 hours later. RNA was isolated from nuclear and cytoplasmic fractions at 15 hours after transfection. RNase protection assays used probes for the HIV-1 major splice donor site sequence (A), and Renilla luciferase (B). Arrows indicate the positions of protected probe fragments corresponding to unspliced (US) and spliced (S) HIV-1 RNA and Renilla luciferase (R-Luc). Lanes marked ‘Probe’ contain undigested probe RNA equivalent to 10% of the input to protection assays. The radioactivity of the protected bands, quantified with a phosphoimager using ImageQuant, is expressed in relative units.
# (§3) Cells and plasmids. 293T cells were grown in Dulbecco's Modified Eagle's medium with 10% fetal bovine serum. pBSIIKS+HIV(+80-341) was constructed by subcloning the PCR-amplified HIV-1 sequence corresponding to nucleotides +80 to +341 of the HIV molecular clone (pNL4-3-Luc E-) between the SmaI and HindIII sites of the pBluescriptllKS+ vector (Stratagene, Calif.). Plasmids pSP-rluc and pCMV-Renilla were purchased from Promega (Madison, Wis.). […]
# [5] = tested on: CMV-Renilla luciferase transcript; test: RNase protection assay of CMV-Renilla luciferase transcript in transfected 293T cells; format: cell-based, human; details: 30 μM, FIG. 1B
# Protocol: as §2, §3
# [6] = tested on: HIV-1 molecular clone pNL4-3-Luc E-; test: Firefly luciferase reporter in full-length HIV-1 molecular clone pNL4-3-Luc E-, 293T cells; format: cell-based, human; details: 30 μM, 12 hours post-transfection, FIG. 1C left
# Protocol: (§4) (C) Specificity of inhibition by CPX. Cells were co-transfected with 500 ng pNL4-3-Luc E-, or with 100 ng of HIV-1 LTR-firefly luciferase reporter plasmid and 20 ng of pRSV-Tat, together with 100 ng of CMV-Renilla luciferase reporter plasmid. Buffer (Control), 30 μM ciclopirox (CPX), or 30 μM Princeton 2 (P2) was added during transfection, and cells were harvested at 12 hours post-transfection for luciferase assay. Results are presented as the ratio of firefly luciferase to Renilla luciferase, normalized to the controls, with standard deviations indicated.
# (§5) Cells and plasmids. 293T cells were grown in Dulbecco's Modified Eagle's medium with 10% fetal bovine serum. pBSIIKS+HIV(+80-341) was constructed by subcloning the PCR-amplified HIV-1 sequence corresponding to nucleotides +80 to +341 of the HIV molecular clone (pNL4-3-Luc E-) between the SmaI and HindIII sites of the pBluescriptllKS+ vector (Stratagene, Calif.). Plasmids pSP-rluc and pCMV-Renilla were purchased from Promega (Madison, Wis.). The plasmids pRSV-Tat and pLTR-firefly luciferase were described earlier (Hogue et al. MCB 2003). The HIV-1 molecular clone pNL4-3-Luc E-, in which part of the Nef gene is replaced by firefly luciferase and the envelope gene is mutated (Chen B. K., J. Virol. 1994), was generously supplied by Dr. D. Baltimore.
# (§6) Gene expression assays. […]
# [7] = tested on: HIV-1 LTR-firefly luciferase reporter; test: HIV-1 LTR-firefly luciferase reporter with pRSV-Tat, 293T cells; format: cell-based, human; details: 30 μM, compared to control and P2, FIG. 1C right
# Protocol: as §4, §5, §6
# purified DOHH = target: T2, purified DOHH (Homo sapiens, UniProt Q9BU89); test: Inhibition of purified DOHH with labeled deoxyhypusine-containing eIF5A substrate; format: biochemical; details: FIG. 3
# T2 sequence (Q9BU89 1-302): T1 sequence (Q9BU89 1-302)
# Protocol: The assay was conducted by using purified enzyme and offering deoxhypusine-containing, deoxhypusine-labeled eIF5A as substrae, plus the appropriate cofactors (see FIG. 2). Enzyme activity was assessed by determining the amount of mature, ie. radioactive hypusine-containing eIF5A via protein hydrolysis, followed by amino acid analysis.
# HIV-1 = test: p24 formation in HIV-1-infected H9 cells by immunoassay; format: cell-based, human; details: FIG. 5
# patient-isolate of HIV-1 [8] = test: HIV-1 p24 and RNA formation in fresh peripheral blood mononuclear cells acutely infected with a patient isolate; format: cell-based, human; details: acutely infected PBMC
# Source text: This system is considered a close model for the actual infection of a human being by ‘wild-type’ HIV-1.
# [9] = tested on: peripheral blood mononuclear cells acutely infected with HIV-1; test: Apoptosis in fresh peripheral blood mononuclear cells acutely infected with a patient isolate of HIV-1; format: cell-based, human; details: preferentially when acutely infected with HIV-1, FIG. 8
# Source text: This effect is ascribed to the suppression of retroviral antiapoptotic proteins as part of the general suppression of retroviral protein synthesis, as exemplified by the decrease in p24 (FIG. 6).
# patient-isolate of HIV-1 [10] = test: HIV-1 p24, RNA and proviral DNA in peripheral blood mononuclear cells chronically infected with a patient isolate; format: cell-based, human; details: FIG. 9
# Protocol: The double y-axis plot of FIG. 9 summarizes the effect of deferiprone on HIV protein synthesis (p24 [left y-axis]), HIV RNA synthesis (copies [right y-axis]), and the presence of HIV DNA, integrated as provirus into the genome of the infected host cells. The cell system and mode of infection used are the same as in FIGS. 6 to 8, i.e. freshly isolated peripheral blood mononuclear cells infected with a patient-isolate of HIV-1, except that the compound was added only after the full-blown infection had developed. The design requires the addition of uninfected cells very second day, so as to keep the infection from burning out. […] The near-eradication of provirus is attributed to the selective apoptotic ablation of HIV-infected cells by DOHH inhibitors (see FIG. 8).
compound,measurement,setting,value
2-imidazoyl-4-methylphenol [IMP],apoptosis at maximal concentration,HIV-1 infected H9 cells,failed to elicit apoptosis
same,inhibition of DOHH,[1]; HIV-positive H9 cells,uniformly ineffective
same,inhibition of DOHH,[2],uniformly ineffective
CC(=O)N(O)CCCCCNC(=O)CCC(=O)N(O)CCCCCNC(=O)CCC(=O)N(O)CCCCCN [DES],apoptosis at maximal concentration,HIV-1 infected H9 cells,failed to elicit apoptosis
same,apoptosis of lymphocytes harvested from healthy volunteers,uninfected lymphocytes,failed to respond with apoptosis
"Cc1cc(C2CCCCC2)n(O)c(=O)c1 [ciclopirox, 6-cyclohexyl-l-hydroxy-4-methyl-2(1H)-pyridone]","apoptosis, share of all cells","HIV-1 infected H9 cells; 40 μM, 18 hours (overnight), HIV-1 infected H9 cells",more than 30%
same,initiation of apoptosis,HIV-1 infected H9 cells,dose-dependent initiation of apoptosis
same,initiation of apoptosis,HIV-1 infected H9 cells; listed as CPX,triggered dose-dependent apoptosis
same,potency in causing a very similar spectrum of effects,HIV-1 infected H9 cells; comparison compound class not given,about ten times more potent
same,concentration with complete suppression of DOHH activity,[1],40 µM
same,inhibition of cellular DOHH,[1],dose-dependent inhibition
same,inhibition of cellular DOHH,[1]; listed as (2),dose-dependent inhibition
same,inhibition of cellular DOHH,[1]; listed as CPX,inhibited DOHH
same,DOHH activity of SiHa cells,[2]; 40 μM,totally suppressed
same,inhibition of DOHH,[2]; dose dependence,inhibited DOHH
same,apoptosis in HPV infected human keratinocytes,[3],does not trigger apoptosis
same,apoptosis in SiHa cells,"[3]; 40 μM, even after 120 hours",did not initiate apoptosis
same,apoptosis in native human lymphocytes not infected by HIV-1,uninfected lymphocytes,does not trigger apoptosis
same,apoptosis of lymphocytes harvested from healthy volunteers,uninfected lymphocytes,failed to respond with apoptosis
same,accumulation of spliced and unspliced HIV-1 transcripts,[4],selectively suppresses
same,transcript accumulation encoded by cytomegalovirus (CMV),[5],does not affect transcript accumulation
same,expression of firefly luciferase reporter encoded in full-length genomic HIV-1 clone,[6],distinctly more inhibitory effect than P2
same,expression of firefly luciferase reporter encoded in full-length genomic HIV-1 clone,[6]; listed as Ciclopirox,reduces gene expression
same,luciferase gene expression from HIV-1 LTR reporter lacking RRE,[7],did not reduce luciferase gene expression
same,inhibition of purified DOHH,purified DOHH,disctinctly more susceptible to inhibition
same,retroviral protein synthesis assessed via p24,HIV-1,suppressed retroviral protein synthesis
same,formation of retroviral p24 protein,patient-isolate of HIV-1 [8]; FIG. 6,efficient in suppressing
same,"formation of retroviral RNA, viral load","patient-isolate of HIV-1 [8]; PCR, FIG. 7",efficient in suppressing
same,apoptosis in PBMC,[9],triggers apoptosis
Cc1c(O)c(=O)ccn1C [deferiprone],initiation of apoptosis,HIV-1 infected H9 cells,triggered dose-dependent apoptosis
same,concentration with complete suppression of DOHH activity,[1],200 µM
same,inhibition of cellular DOHH,[1],inhibited DOHH
same,inhibition of DOHH,[2]; dose dependence,inhibited DOHH
same,apoptosis of lymphocytes harvested from healthy volunteers,uninfected lymphocytes,failed to respond with apoptosis
same,HIV protein synthesis (p24),patient-isolate of HIV-1 [10]; compound added after full-blown infection,undetectable
same,HIV DNA integrated as provirus,patient-isolate of HIV-1 [10]; end of experiment,at best a trace of integrated provirus
same,HIV RNA,patient-isolate of HIV-1 [10]; over the days after p24 became undetectable,dropped to the limit of detection
